Reference: PMC8070648, “Simultaneous Visualization of ^161Tb- and ^177Lu-Labeled Somatostatin Analogues Using Dual-Isotope SPECT Imaging” (Pharmaceutics, 2021)
Read-outs that look alike come from different tables or passages of the source.

Experiment: Biodistribution in AR42J tumor-bearing nude mice
Type: in vivo
Details: female, CD-1 nude, mouse, iv, 1 nmol/mouse, total radioactivity, i.v. 5 MBq; for tissue uptake at 2 h: 2 h p.i.; for tissue uptake at 24 h: 24 h p.i.
Description: Five-week-old female CD-1 nude mice were purchased from Charles River Laboratories (Sulzfeld, Germany).

[1] = AR42J tumor, read-out: AR42J Tumor
[2] = femoral muscle, read-out: Muscle
[3] = intestines, read-out: Intestines

Compound C[C@@H](O)[C@@H]1NC(=O)[C@H](CCCCN)NC(=O)[C@@H](Cc2c[nH]c3ccccc23)NC(=O)[C@H](Cc2ccc(O)cc2)NC(=O)[C@@H](NC(=O)[C@@H](Cc2ccccc2)NC(=O)CN2CCN(CC(=O)O)CCN(CC(=O)O)CCN(CC(=O)O)CC2)CSSC[C@@H](C(=O)N[C@H](CO)[C@@H](C)O)NC1=O [[^161Tb]Tb-DOTATOC, metal not drawn] has a tissue uptake at 2 h [1] of 8.2 ± 0.2 %ID/g, a tissue uptake at 24 h [1] of 3.8 ± 0.6 %ID/g and a tissue uptake at 2 h (adrenals, read-out: Adrenals) of 0.25 ± 0.06 %ID/g. The tissue uptake at 24 h (adrenals, read-out: Adrenals) was 0.23 ± 0.2 %ID/g, the tissue uptake at 2 h (blood, read-out: Blood) was no more than 0.1 %ID/g and the tissue uptake at 24 h (blood, read-out: Blood) was no more than 0.1 %ID/g. The tissue uptake at 2 h [2] was no more than 0.1 %ID/g, the tissue uptake at 24 h [2] was no more than 0.1 %ID/g and the tissue uptake at 2 h (femur, read-out: Femur) was no more than 0.1 %ID/g. It also gave a tissue uptake at 24 h (femur, read-out: Femur) of no more than 0.1 %ID/g, a tissue uptake at 2 h (heart, read-out: Heart) of no more than 0.1 %ID/g and a tissue uptake at 24 h (heart, read-out: Heart) of no more than 0.1 %ID/g. For the same compound, the tissue uptake at 2 h [3] was 0.21 ± 0.13 %ID/g, the tissue uptake at 24 h [3] was no more than 0.1 %ID/g and the tissue uptake at 2 h (kidneys, read-out: Kidneys) was 9.9 ± 1.4 %ID/g. It also gave a tissue uptake at 24 h (kidneys, read-out: Kidneys) of 5.2 ± 0.6 %ID/g, a tissue uptake at 2 h (liver, read-out: Liver) of 0.17 ± 0.01 %ID/g and a tissue uptake at 24 h (liver, read-out: Liver) of no more than 0.1 %ID/g. For the same compound, the tissue uptake at 2 h (lung, read-out: Lung) was 0.27 ± 0.03 %ID/g, the tissue uptake at 24 h (lung, read-out: Lung) was 0.11 ± 0.01 %ID/g and the tissue uptake at 2 h (pancreas, read-out: Pancreas) was 0.71 ± 0.07 %ID/g. For the same compound, the tissue uptake at 24 h (pancreas, read-out: Pancreas) was 0.18 ± 0.01 %ID/g, the tissue uptake at 2 h (spleen, read-out: Spleen) was 0.11 ± 0.02 %ID/g and the tissue uptake at 24 h (spleen, read-out: Spleen) was no more than 0.1 %ID/g. The tissue uptake at 2 h (stomach, read-out: Stomach) was 0.74 ± 0.38 %ID/g and the tissue uptake at 24 h (stomach, read-out: Stomach) was 0.29 ± 0.11 %ID/g.
